Data from patent US20070117743A1, “New antitumoral compounds” (priority 2003, published 2007).
Where a SMILES comes first, the peptide text is derived from it. Bridges are numbered along the chain shown (N, C = ends). [ ]: non-standard residue; d: D form. The star is where a group is joined. d(aIle) = CC[C@H](C)[C@@H](N)C(=O)O; d(aThr) = C[C@@H](O)[C@@H](N)C(=O)O; Hexanoyl(5-Me) = CC(C)CCCC(=O)*; Orn = NCCC[C@H](N)C(=O)O; Dhb = C/C=C(\N)C(=O)O

Key:
Format in all cases: cell-based, human
HT-29 = assay: SRB colorimetric assay of cell growth and viability, HT-29; details: 48 hours exposure; for GI50: read-out: GI50 HT-29; for CC50: read-out: LC50 HT-29
HeLa = assay: SRB colorimetric assay of cell growth and viability, HeLa; details: 48 hours exposure; for CC50: read-out: LC50 HELA
LNCaP = assay: SRB colorimetric assay of cell growth and viability, LNCaP; details: 48 hours exposure; for GI50: read-out: GI50 LN-caP; for CC50: read-out: LC50 LN-caP
IGROV-1 = assay: SRB colorimetric assay of cell growth and viability, IGROV-1; details: 48 hours exposure
K-562 = assay: SRB colorimetric assay of cell growth and viability, K-562; details: 48 hours exposure; for CC50: read-out: LC50 K-562
LoVo = assay: SRB colorimetric assay of cell growth and viability, LoVo; details: 48 hours exposure; for CC50: read-out: LC50 LOVO
DU-145 = assay: SRB colorimetric assay of cell growth and viability, DU-145; details: 48 hours exposure
HeLa-APL = assay: SRB colorimetric assay of cell growth and viability, HeLa-APL; details: 48 hours exposure; for CC50: read-out: LC50 HELA-APL
IGROV-ET = assay: SRB colorimetric assay of cell growth and viability, IGROV-ET; details: 48 hours exposure; for CC50: read-out: LC50 IGROV-ET
SK-BR-3 = assay: SRB colorimetric assay of cell growth and viability, SK-BR-3; details: 48 hours exposure
SK-MEL-28 = assay: SRB colorimetric assay of cell growth and viability, SK-MEL-28; details: 48 hours exposure; for CC50: read-out: LC50 MEL-28
PANC-1 = assay: SRB colorimetric assay of cell growth and viability, PANC-1; details: 48 hours exposure; for CC50: read-out: LC50 PANC-1
A-549 = assay: SRB colorimetric assay of cell growth and viability, A-549; details: 48 hours exposure; for GI50: read-out: GI50 A-549; for CC50: read-out: LC50 A-549

SMILES	TGI HT-29 (HT-29) [Molar]	GI50 (HT-29) [µM]	CC50 (HT-29) [µM]	GI50 (HeLa) [µM]	TGI HELA (HeLa) [Molar]	CC50 (HeLa) [µM]	TGI LN-caP (LNCaP) [Molar]	GI50 (LNCaP) [µM]	CC50 (LNCaP) [µM]	GI50 (IGROV-1) [µM]	LC50 (concentration causing 50% net cell killing) (IGROV-1) [µM]	TGI IGROV (IGROV-1) [Molar]	GI50 (K-562) [µM]	TGI K-562 (K-562) [Molar]	CC50 (K-562) [µM]	GI50 (LoVo) [µM]	TGI LOVO (LoVo) [Molar]	CC50 (LoVo) [µM]	GI50 (DU-145) [µM]	LC50 (concentration causing 50% net cell kill) (DU-145) [µM]	further results
C/C=C1\NC(=O)[C@H](Cc2ccccc2)NC(=O)[C@@H](C(C)C)NC(=O)[C@@H]([C@@H](C)CC)NC(=O)[C@H](NC(=O)[C@H](NC(=O)[C@H](CCCN)NC(=O)[C@H]2CCCN2C(=O)[C@H](NC(=O)[C@@H](NC(=O)[C@@H](NC(=O)[C@H](NC(=O)CCCNC(=N)N)C(C)C)[C@@H](C)O)C(C)C)C(C)C)[C@@H](C)CC)[C@@H](C)OC(=O)[C@H](C(C)C)NC1=O [Compound 29, [4-GuBut^14]-KF]	6.70E−06	6.7	6.7	6.7	6.70E−06	6.7	6.70E−06	3.91	6.7	6.7	6.7	6.70E−06	6.7	6.70E−06	6.7	5.45	6.70E−06	6.7	6.7	6.7	TGI DU-145 (DU-145): 6.70E−06 Molar; GI50 (HeLa-APL): 6.7 µM; TGI HELA-APL (HeLa-APL): 6.70E−06 Molar; CC50 (HeLa-APL): 6.7 µM; GI50 (IGROV-ET): 6.7 µM; TGI IGROV-ET (IGROV-ET): 6.70E−06 Molar; CC50 (IGROV-ET): 6.7 µM; GI50 (SK-BR-3): 6.7 µM; LC50 (SK-BR-3): 6.7 µM; TGI SK-BR-3 (SK-BR-3): 6.70E−06 Molar; GI50 (SK-MEL-28): 6.7 µM; TGI MEL-28 (SK-MEL-28): 6.70E−06 Molar; CC50 (SK-MEL-28): 6.7 µM; GI50 (PANC-1): 6.7 µM; TGI PANC-1 (PANC-1): 6.70E−06 Molar; CC50 (PANC-1): 6.7 µM; TGI A-549 (A-549): 6.70E−06 Molar; GI50 (A-549): 6.7 µM; CC50 (A-549): 6.7 µM
C/C=C1\NC(=O)[C@H](Cc2ccccc2)NC(=O)[C@@H](C(C)C)NC(=O)[C@@H]([C@@H](C)CC)NC(=O)[C@H](NC(=O)[C@H](NC(=O)[C@H](CCCN)NC(=O)[C@H]2CCCN2C(=O)[C@H](NC(=O)[C@H](CCC(N)=O)NC(=O)[C@@H](NC(=O)[C@H](NC(=O)CCCC(C)C)C(C)C)[C@@H](C)O)C(C)C)[C@@H](C)CC)[C@@H](C)OC(=O)[C@H](C(C)C)NC1=O [Compound 48, [Gln^11]-KF] ({Hexanoyl(5-Me)}-[dV]TQ[dV][dP][Orn][d(aIle)][d(aThr)][d(aIle)][dV]F[Dhb]V; ester 8-C)	6.64E−06	6.64	6.64	6.64	6.64E−06	6.64	6.64E−06	3.1	6.64	6.64	6.64	6.64E−06	6.64	6.64E−06	6.64	5.17	6.64E−06	6.64	6.64	6.64	TGI DU-145 (DU-145): 6.64E−06 Molar; GI50 (HeLa-APL): 6.64 µM; TGI HELA-APL (HeLa-APL): 6.64E−06 Molar; CC50 (HeLa-APL): 6.64 µM; GI50 (IGROV-ET): 6.64 µM; TGI IGROV-ET (IGROV-ET): 6.64E−06 Molar; CC50 (IGROV-ET): 6.64 µM; GI50 (SK-BR-3): 6.64 µM; LC50 (SK-BR-3): 6.64 µM; TGI SK-BR-3 (SK-BR-3): 6.64E−06 Molar; GI50 (SK-MEL-28): 6.64 µM; TGI MEL-28 (SK-MEL-28): 6.64E−06 Molar; CC50 (SK-MEL-28): 6.64 µM; GI50 (PANC-1): 5.1 µM; TGI PANC-1 (PANC-1): 6.64E−06 Molar; CC50 (PANC-1): 6.64 µM; TGI A-549 (A-549): 6.64E−06 Molar; GI50 (A-549): 5.82 µM; CC50 (A-549): 6.64 µM
C/C=C1\NC(=O)[C@H](Cc2ccccc2)NC(=O)[C@@H](C(C)C)NC(=O)[C@@H]([C@@H](C)CC)NC(=O)[C@H](NC(=O)[C@H](NC(=O)[C@H](CCCN)NC(=O)[C@H]2CCCN2C(=O)[C@H](NC(=O)CNC(=O)[C@@H](NC(=O)[C@H](NC(=O)CCCC(C)C)C(C)C)[C@@H](C)O)C(C)C)[C@@H](C)CC)[C@@H](C)OC(=O)[C@H](C(C)C)NC1=O [Compound 42, [Gly^11]-KF] ({Hexanoyl(5-Me)}-[dV]TG[dV][dP][Orn][d(aIle)][d(aThr)][d(aIle)][dV]F[Dhb]V; ester 8-C)	6.96E−06	6.96	6.96	6.96	6.96E−06	6.96	6.96E−06	3.03	6.96	4.61	6.96	6.96E−06	1.82	4.37E−06	6.96	3.87	6.96E−06	6.96	6.96	6.96	TGI DU-145 (DU-145): 6.96E−06 Molar; GI50 (HeLa-APL): 6.96 µM; TGI HELA-APL (HeLa-APL): 6.96E−06 Molar; CC50 (HeLa-APL): 6.96 µM; GI50 (IGROV-ET): 6.96 µM; TGI IGROV-ET (IGROV-ET): 6.96E−06 Molar; CC50 (IGROV-ET): 6.96 µM; GI50 (SK-BR-3): 6.96 µM; LC50 (SK-BR-3): 6.96 µM; TGI SK-BR-3 (SK-BR-3): 6.96E−06 Molar; GI50 (SK-MEL-28): 6.96 µM; TGI MEL-28 (SK-MEL-28): 6.96E−06 Molar; CC50 (SK-MEL-28): 6.96 µM; GI50 (PANC-1): 5.08 µM; TGI PANC-1 (PANC-1): 6.96E−06 Molar; CC50 (PANC-1): 6.96 µM; TGI A-549 (A-549): 6.96E−06 Molar; GI50 (A-549): 6.96 µM; CC50 (A-549): 6.96 µM
